The values that follow are results of earlier work, collected in US11771690B2, “Solid particle, preparation method therefor, and pharmaceutical composition containing solid particle” (SHANGHAI WD PHARMACEUTICAL CO., LTD, priority 2018, dated 2023).

SMILES strings stand for the structures.

For `C[C@]12C=CC(=O)N[C@@H]1CC[C@@H]1[C@@H]2CC[C@]2(C)[C@@H](C(=O)Nc3cc(C(F)(F)F)ccc3C(F)(F)F)CC[C@@H]12` [Dutasteride, (5α,17β)-N-{2,5-bis(trifluoromethyl)phenyl}-3-oxo-4-azaandrost-1-ene-17-carboxamide], the solubility in water result is recorded as “insoluble”.
